Patent US12435023B2, “Crystal form of Treprostinil sodium salt and preparation method therefor” (Shanghai Forefront Pharmaceutical Co., Ltd, priority 2019, dated 2025)
Structures can show the parent of a compound that is named as a salt.

Legend:
[1] = Water solubility at 25±2° C., dissolution observed within 30 minutes; details: for solubility at 30 min: 25 °C, thermodynamic from solid; for Dissolution observed in water: 25±2° C., within 30 minutes, free acid 20 mg in 200 mL, salt forms about 100 mg in 1 mL
Method: 20 mg of Treprostinil free acid was weighed and added into a volumetric flask, 200 mL of water was added, and placed in a water bath pot (temperature was controlled at 25±2° C.), shook strongly for 30 seconds every 5 minutes, and the dissolution within 30 minutes was observed.

[2] = Hygroscopicity by dynamic vapor sorption (DVS); format: physicochemical; details: for Water content: DVS
Text: Hygroscopicity is one of the key physicochemical properties of drugs and has a significant impact on drug stability, powderological properties and subsequent processing procedure.

[3] = Accelerated stability at 40±2° C. and 75±5% relative humidity for 6 months; details: 75±5% RH
Method: The purity of samples after stability test was determined by HPLC, the water content of samples after stability test was determined by Karl Fischer titration, and the crystal form of samples after stability test was determined by XRPD.

[4] = Hygroscopicity on storage at 25 degrees and 80% relative humidity for 24 hours; format: physicochemical; details: 25 degrees
[5] = 60% relative humidity, according to WO2016055819; cited from earlier work

CCCCC[C@H](O)CC[C@@H]1[C@H]2Cc3cccc(OCC(=O)O)c3C[C@H]2C[C@H]1O [Treprostinil free acid, Treprostinil]
solubility at 30 min [1]: < 0.1 mg/mL | Dissolution observed in water [1]: insoluble

CCCCC[C@H](O)CC[C@@H]1[C@H]2Cc3cccc(OCC(=O)[O-])c3C[C@H]2C[C@H]1O.[Na+] [Treprostinil sodium salt]
Water content ([2]; 40.0 RH % / 25° C.): 18.6 wt % | Water content ([2]; 45.0 RH % / 25° C.): 18.7 wt % | Water content ([2]; 50.0 RH % / 25° C.): 18.7 wt % | Water content ([2]; 55.0 RH % / 25° C.): 18.8 wt % | Water content ([2]; 60.0 RH % / 25° C.): 18.8 wt % | Water content ([2]; 65.0 RH % / 25° C.): 18.9 wt % | Water content ([2]; 70.0 RH % / 25° C.): 18.9 wt % | Water content ([2]; 75.0 RH % / 25° C.): 19.0 wt % | Water content ([2]; 80.0 RH % / 25° C.): 19.7 wt % | Water content ([2]; 85.0 RH % / 25° C.): 19.9 wt % | Water content ([2]; 90.0 RH % / 25° C.): 20.5 wt % | Water content ([2]; 95.0 RH % / 25° C.): 22.6 wt % | Hygroscopicity according to the definition in European Pharmacopoeia ([2]; relative humidity 40% to 80%): slight hygroscopicity | Increasing value of the water content, i.e., hygroscopicity ([2]; relative humidity increased from 40% to 80%): 1.1 wt % | solubility at 30 min [1]: > 100 mg/mL | Dissolution observed in water [1]: completely dissolved | Appearance ([3]; 0 day): Off-white | Purity (HPLC) after stability test ([3]; 0 day): 99.97% | Water (Karl Fischer) after stability test ([3]; 0 day): 20.1% | Appearance ([3]; 1 month): Off-White | Purity (HPLC) after stability test ([3]; 1 month): 99.97% | Water (Karl Fischer) after stability test ([3]; 1 month): 20.4% | Appearance ([3]; 3 months): Off-white | Purity (HPLC) after stability test ([3]; 3 months): 99.96% | Water (Karl Fischer) after stability test ([3]; 3 months): 20.0% | Appearance ([3]; 6 months): Off-white | Chemical stability and solid-state stability ([3]; 6 months): excellent chemical stability and solid-state stability | Purity (HPLC) after stability test ([3]; 6 months): 99.98% | Water (Karl Fischer) after stability test ([3]; 6 months): 20.2% | Behaviour of the solid on humid storage [4]: deliquesced into a viscous solution | Hygroscopicity [4]: extremely hygroscopic

CCCCC[C@H](O)CC[C@@H]1[C@H]2Cc3cccc(OCC(=O)O)c3C[C@H]2C[C@H]1O [Form A, Treprostinil sodium salt]
Crystal form conversion [5]: converted into Form C
